Key:
[1] = biological target: T1, β-lactamase produced by Enterobacter cloacae IFO 12937 (Enterobacter cloacae, UniProt P05364); assay: Inhibitor concentration required to inhibit β-lactamase (cephalosporinase) activity by 50%, micro-iodometric method; format: biochemical; conditions: Enterobacter cloacae IFO 12937 cephalosporinase; 0.05M phosphate buffer pH 7, 30° C., 10 minutes preincubation; cephalothin or ampicillin 0.1 mM; read-out: I50 (converted)
T1 construct: The β-lactamase produced by Enterobacter cloacae IFO 12937; endogenous in cells; host or cells: Enterobacter cloacae IFO 12937
T1 sequence (P05364 21-381): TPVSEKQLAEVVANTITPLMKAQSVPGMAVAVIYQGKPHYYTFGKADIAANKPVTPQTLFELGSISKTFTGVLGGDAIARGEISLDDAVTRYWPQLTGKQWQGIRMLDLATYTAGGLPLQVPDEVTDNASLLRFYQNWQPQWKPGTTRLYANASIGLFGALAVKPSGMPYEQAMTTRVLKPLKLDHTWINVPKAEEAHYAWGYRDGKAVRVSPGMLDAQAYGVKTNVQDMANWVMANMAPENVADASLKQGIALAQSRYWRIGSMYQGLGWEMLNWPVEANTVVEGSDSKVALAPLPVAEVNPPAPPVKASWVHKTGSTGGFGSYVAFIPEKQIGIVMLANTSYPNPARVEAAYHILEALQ
Method: (§1) Determination of the inhibitor concentration required to inhibit the enzyme activity by 50%
(§2) The β-lactamase produced by Enterobacter cloacae IFO 12937 is used as a typical example of cephalosporinase, and that produced by Staphylococcus aureus 1840 as typical example of penicillinase. The β-lactamase in incubated is 0.05M phosphate buffer (pH 7) with an appropriate dilution of an inhibitor preparation at 30° C. for 10 minutes. Cephalothin or ampicillin is then added in an amount sufficient to produce a final concentration of 0.1 mM, and the enzymatic reaction is allowed to proceed for 10 minutes. The enzyme activity is determined by the micro-iodometric method [Journal of general Microbiology, vol. 33, page 121 (1963)]. Hereinafter, the inhibitor concentration required to inhibit the enzyme activity by 50% is expressed as I50. The I50 values for Enterobacter cloaceae are shown in Table 1, and the I50 values for Staphylococcus aureus in Table 2.

[2] = biological target: T2, β-lactamase produced by Staphylococcus aureus 1840 (Staphylococcus aureus, UniProt P00807); assay: Inhibitor concentration required to inhibit β-lactamase (penicillinase) activity by 50%, micro-iodometric method; format: biochemical; conditions: Staphylococcus aureus 1840 penicillinase; 0.05M phosphate buffer pH 7, 30° C., 10 minutes preincubation; cephalothin or ampicillin 0.1 mM; read-out: I50 (converted)
T2 construct: endogenous in cells; host or cells: Staphylococcus aureus 1840
Method: as §1, §2

[3] = test system: Citrobacter freundii TN 512; assay: Synergy with Cefotiam, agar dilution MIC; format: cell-based; conditions: Table 4, 1 μg/ml test compound in agar, inoculum 10^8 per ml, 18 hours
Method: (§3) The inoculum concentration is 10^8 per ml, and the medium is prepared by using Trypticase® soy agar (Becton Dickinson & Company, USA).

[4] = test system: Enterobacter cloacae IFO 12937; assay: Synergy with Cefotiam, agar dilution MIC; format: cell-based; conditions: Table 4, 1 μg/ml test compound in agar, inoculum 10^8 per ml, 18 hours
Method: as §3

Proteus vulgaris GN 5297 = assay: Synergy with Cefotiam, agar dilution MIC; format: cell-based; conditions: Table 4, 1 μg/ml test compound in agar, inoculum 10^8 per ml, 18 hours
Method: as §3

[5] = test system: Citrobacter freundii GN 1706; assay: Synergy with Cefotiam, agar dilution MIC; format: cell-based; conditions: Table 4, 1 μg/ml test compound in agar, inoculum 10^8 per ml, 18 hours
Method: as §3

Proteus morganii TN 387 = assay: Synergy with Cefotiam, agar dilution MIC; format: cell-based; conditions: Table 4, 1 μg/ml test compound in agar, inoculum 10^8 per ml, 18 hours
Method: as §3

IC50 [1]	Compound	further results
0.215 µM	COC1(NC(=O)[C@H](NC(=O)N2CCN(C3CCCCC3)C(=O)C2=O)c2cccs2)CN(S(=O)(=O)O)C1=O (stereo partly drawn) [Compound 37, Sodium 3-[D-2-(4-cyclohexyl-2,3-dioxo-1-pipeadinecarboxamido)-2-thienylacetamido]-3-methoxy-2-oxoazetidine-1-sulfonate]	–
0.053 µM	CC(C)ON=C(C(=O)NC1CN(S(=O)(=O)O)C1=O)c1csc(N)n1 (stereo not shown) [Compound 23]	–
–	O=C(NC1CN(S(=O)(=O)O)C1=O)[C@H](NC(=O)N1CCNC1=O)c1cccs1 (stereo partly drawn) [Compound 45, Sodium 3-[D-2-[(2-oxoimidazolidin-1-yl)carboxamido]-2-thienylacetamido]-2-oxoazetidine-1-sulfonate]	IC50 [2]: 5.75 µM
0.13 µM	COC1(NC(=O)[C@H](NC(=O)N2CCN(CC(=O)N3CCCCC3)C(=O)C2=O)c2cccs2)CN(S(=O)(=O)O)C1=O (stereo partly drawn) [Compound 38, Sodium 3-methoxy-3-[D-2-(4-piperidinecarbonylmethyl-2,3-dioxo-1-piperadinecarboxamido)-2-thienylacetamido]-2-oxoazetidine-1-sulfonate]	–
7.97 µM	COC1(NC(=O)[C@@H](C)NC(=O)OCc2ccccc2)CN(S(=O)(=O)O)C1=O (stereo partly shown) [Compound 8]	–
0.387 µM	COc1ccc(COC(=O)C(C(=O)NC2(OC)CN(S(=O)(=O)O)C2=O)c2ccc(O)cc2)cc1 (stereo not shown)	–
–	[N-]=[N+]=NC(C(=O)NC1CN(S(=O)(=O)O)C1=O)c1cccc(Cl)c1 (stereo not shown)	IC50 [2]: 0.147 µM
–	O=C(NC(CS(=O)(=O)NC1CN(S(=O)(=O)O)C1=O)C(=O)OCc1ccccc1)OCc1ccccc1 (stereo not shown) [Compound 48]	IC50 [2]: 3.14 µM
2.15 µM	CCN1CCN(C(=O)N[C@H](Cc2ccccc2)C(=O)NC2(OC)CN(S(=O)(=O)O)C2=O)C(=O)C1=O (stereo partly shown) [Compound 7]	–
0.0783 µM	CCCCCCCCN1CCN(C(=O)NC(C(=O)NC2(OC)CN(S(=O)(=O)O)C2=O)c2cccs2)C(=O)C1=O (stereo not shown) [Compound 2]	–
–	[N-]=[N+]=NC(C(=O)NC1CN(S(=O)(=O)O)C1=O)c1ccccc1 (stereo not shown)	IC50 [2]: 0.144 µM
0.0565 µM	COC1(NC(=O)C(=NOC(C)C)c2csc(N)n2)CN(S(=O)(=O)O)C1=O (stereo not shown) [Compound 36, Sodium 3-[2-(2-aminothiazol-4-yl)-2-(1-methylethoxyimino)actamido]-3-methoxy-2-oxoazetidine-1-sulfonate]	–
0.712 µM	CON=C(C(=O)NC1(OC)CN(S(=O)(=O)O)C1=O)c1csc(N)n1 (stereo not shown) [Compound 13]	–
0.617 µM	COC1(NC(=O)[C@H](NC(=O)N2CCN(N=Cc3ccco3)C2=O)c2ccccc2)CN(S(=O)(=O)O)C1=O (stereo partly shown) [Compound 3]	MIC of Cefotiam with 1 μg/ml of Compound [3]: 0.39; MIC of Cefotiam with 1 μg/ml of Compound [4]: 3.13; MIC of Cefotiam with 1 μg/ml of Compound (Proteus vulgaris GN 5297): 400; MIC of Cefotiam with 1 μg/ml of Compound [5]: 12.5; MIC of Cefotiam with 1 μg/ml of Compound (Proteus morganii TN 387): 0.39
0.622 µM	CON=C(C(=O)NC1CN(S(=O)(=O)O)C1=O)c1nc(NC(=O)CCl)sc1Cl (stereo not shown)	–
–	O=C(NC1CN(S(=O)(=O)O)C1=O)C(Br)c1ccccc1 (stereo not shown)	IC50 [2]: 0.493 µM
5.02 µM	CCCCCCCCN1CCN(C(=O)N[C@@H](C(=O)NC2CN(S(=O)(=O)O)C2=O)c2cccs2)C(=O)C1=O (stereo partly drawn) [Compound 1, Sodium 3-[D-2-(4-n-octyl-2,3-dioxo-1-piperazinecarboxamido)-2-thienylacetamido]-2-oxoazetidine-1-sulfoante]	–
–	Nc1nc(CC(=O)N[C@@H](C(=O)NC2CN(S(=O)(=O)O)C2=O)c2ccccc2)cs1 (stereo partly shown) [Compound 47]	IC50 [2]: 11.4 µM
0.523 µM	CCN1CCN(C(=O)NC(C(=O)NC2(OC)CN(S(=O)(=O)O)C2=O)c2ccccc2)C(=O)C1=O (stereo not shown) [Compound 11]	–
5 µM	COc1cccc(OC)c1C(=O)NC1(OC)CN(S(=O)(=O)O)C1=O (stereo not shown) [Compound 18]	–
–	O=C(NC1CN(S(=O)(=O)O)C1=O)C(=O)c1ccccc1 (stereo not shown)	IC50 [2]: 12.5 µM
0.391 µM	COC1(NC(=O)C(C(=O)O)c2ccccc2)CN(S(=O)(=O)O)C1=O (stereo not shown) [Compound 5]	–
0.12 µM	COC1(NC(=O)[C@H](NC(=O)N2CCN(CC=C(C)C)C(=O)C2=O)c2cccs2)CN(S(=O)(=O)O)C1=O (stereo partly drawn) [Compound 41, Sodium 3-[D-2-[4-(3-methyl-2-butenyl)-2,3-dioxo-1-piperadinecarboxamido]-2-thienylacetamido]-3-methoxy-2-oxoazetidine-1-sulfonate]	–

IC50 [1]	Compound	further results
1.25 µM	Cc1ccc(SN=C(C(=O)NC2CN(S(=O)(=O)O)C2=O)c2ccccc2)cc1 (stereo not shown)	–
4.88 µM	CCN1CCN(C(=O)NC(C(=O)NC2CN(S(=O)(=O)O)C2=O)C2=CCCCC2)C(=O)C1=O (stereo not shown) [Compound 10]	–
4.82 µM	CC(C)(ON=C(C(=O)NC1CN(S(=O)(=O)O)C1=O)c1csc(NC(c2ccccc2)(c2ccccc2)c2ccccc2)n1)C(=O)O (stereo not shown) [Compound 43, Disodium 3-[2-[(1-carboxy-1-methylethoxy)imino]-2-(2-tritylaminothiazol-4-yl)acetamido]-2-oxoazetidine-1-sulfonate]	–
0.954 µM	COC1(NC(=O)C(N=[N+]=[N-])c2ccccc2)CN(S(=O)(=O)O)C1=O (stereo not shown)	–
2.4 µM	CNC(=O)CC(NC(=O)OCc1ccccc1)C(=O)NC1(OC)CN(S(=O)(=O)O)C1=O (stereo not shown) [Compound 6]	–
15.3 µM	CON=C(C(=O)NC1CN(S(=O)(=O)O)C1=O)c1ccccc1 (stereo not shown) [Compound 16]	–
2.96 µM	CON=C(C(=O)NC1CN(S(=O)(=O)O)C1=O)c1nc(N)sc1Cl (stereo not shown)	–
0.0501 µM	CC(C)ON=C(C(=O)NC1CN(S(=O)(=O)O)C1=O)c1csc(N)n1 (stereo not shown)	–
15.1 µM	COC1(NC(=O)OCc2ccccc2)CN(S(=O)(=O)O)C1=O (stereo not shown) [Compound 30, Sodium 3-benzyloxycarboxamido-3-methoxy-2-oxoazetidine-1-sulfonate]	–
0.873 µM	O=C(NC1CN(S(=O)(=O)O)C1=O)C(c1cccs1)N1C(=O)c2ccccc2C1=O (stereo not shown) [Compound 34, Sodium 3-(2-phthalimido-2-thienylacetamido)-2-oxoazetidine-1-sulfonate]	–
0.124 µM	COC1(NC(=O)[C@H](NC(=O)N2CCN(C(C)(C)C)C(=O)C2=O)c2cccs2)CN(S(=O)(=O)O)C1=O (stereo partly drawn) [Compound 40, Sodium 3-[D-2-(4-t-butyl-2,3-dioxo-1-piperadinecarboxamido)-2-thienylacetamido]-3-methoxy-2-oxoazetidine-1-sulfonate]	–
–	CCOC(=O)C(C(=O)c1ccccc1)=C1SC(C(=O)NC2CN(S(=O)(=O)O)C2=O)S1 (stereo not shown) [Compound 54]	IC50 [2]: 2.54 µM
6.44 µM	Cc1onc(-c2c(Cl)cccc2Cl)c1C(=O)N[C@@H](C(=O)NC1CN(S(=O)(=O)O)C1=O)c1cccs1 (stereo partly drawn) [Compound 25, Sodium 3-[D-2-[[3-(2,6-dichlorophenyl)-5-methylisoxazol-4-yl]-carboxamido]-2-thienylacetamido]-2-oxoazetidine-1-suflonate]	IC50 [2]: 0.715 µM
1.2 µM	COC1(NC(=O)C(C)NC(=O)C(CS(=O)(=O)NS(=O)(=O)O)NC(=O)OCc2ccccc2)CN(S(=O)(=O)O)C1=O (stereo not shown) [Compound 24]	–
–	CS(=O)(=O)NC1CN(S(=O)(=O)O)C1=O (stereo not shown) [Compound 52]	IC50 [2]: 14.3 µM
–	CCN1C(=O)C(=O)N(C(=O)N[C@@H](C(=O)NC2CN(S(=O)(=O)O)C2=O)c2cccs2)C[C@@H]1C (stereo partly drawn) [Compound 44, Sodium 3-[D-2-(4-ethyl-5(S)-methyl-2,3-dioxo-2,3-dioxo-1-piperazinecarboxamido)-2-thienylacetamido]-2-oxoazetidine-1-sulfonate]	IC50 [2]: 2.46 µM
0.658 µM	CON=C(C(=O)NC1(OC)CN(S(=O)(=O)O)C1=O)c1csc(NC(=O)CCl)n1 (stereo not shown) [Compound 14]	–
0.0892 µM	COC1(NC(=O)C(C(=O)OCc2ccccc2)c2ccccc2)CN(S(=O)(=O)O)C1=O (stereo not shown) [Compound 4]	–
9.46 µM	O=C(NC1CN(S(=O)(=O)O)C1=O)C(OS(=O)(=O)O)c1ccccc1 (stereo not shown) [Compound 15]	–
0.127 µM	COC1(NC(=O)[C@H](NC(=O)N2CCN(c3ccccc3)C(=O)C2=O)c2cccs2)CN(S(=O)(=O)O)C1=O (stereo partly drawn) [Compound 39, Sodium 3-methoxy-3-[D-2-(4-phenyl-2,3-dioxo-1-piperadinecarboxamido)-2-thienylacetamido]-2-oxoazetidine-1-sulfonate]	–
5.68 µM	CCN1CCN(C(=O)NC(C(=O)NC2CN(S(=O)(=O)O)C2=O)C2=C(Cl)CCCC2)C(=O)C1=O (stereo not shown)	–
–	O=C(CSc1c(Cl)cccc1Cl)N[C@@H](C(=O)NC1CN(S(=O)(=O)O)C1=O)c1ccccc1 (stereo partly shown) [Compound 46]	IC50 [2]: 9.65 µM
7.1 µM	COc1cccc(OC)c1C(=O)NC1CN(S(=O)(=O)O)C1=O (stereo not shown)	–

Compound	IC50 [1]	further results
CC(C)(C)OC(=O)C(C)(C)ON=C(C(=O)NC1CN(S(=O)(=O)[O-])C1=O)c1csc(NS(=O)(=O)[O-])n1.[Na+].[Na+] (stereo not shown)	0.00914 µM	MIC of Cefotiam with 1 μg/ml of Compound [3]: 0.39; MIC of Cefotiam with 1 μg/ml of Compound [4]: 0.39; MIC of Cefotiam with 1 μg/ml of Compound (Proteus vulgaris GN 5297): < 0.2; MIC of Cefotiam with 1 μg/ml of Compound [5]: 3.13; MIC of Cefotiam with 1 μg/ml of Compound (Proteus morganii TN 387): 0.2

Source: patent publication US4725591A, “β-lactamase inhibitory composition” (Takeda Chemical Industries, Ltd., priority 1980, dated 1988)
